PubChem BioAssay (NCI)
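Cultured in 96-well plates, cells were exposed to test compound for 48 hours across five concentrations. GI50 = concentration required for 50% inhibition of growth. Definition used: TGI = concentration required for complete inhibition of growth.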

Tests used:
Assay in all cases: DTP human tumour cell line panel, 48 h
SW-620 colon = tested on: SW-620 colon
OVCAR-4 ovarian = tested on: OVCAR-4 ovarian
A498 renal = tested on: A498 renal
OVCAR-8 ovarian = tested on: OVCAR-8 ovarian
T-47D breast = tested on: T-47D breast
SNB-19 CNS = tested on: SNB-19 CNS
M14 melanoma = tested on: M14 melanoma
NCI-H23 lung = tested on: NCI-H23 lung
NCI-H460 lung = tested on: NCI-H460 lung
SK-MEL-2 melanoma = tested on: SK-MEL-2 melanoma
SF-295 CNS = tested on: SF-295 CNS
SF-539 CNS = tested on: SF-539 CNS
IGROV1 ovarian = tested on: IGROV1 ovarian
HCT-15 colon = tested on: HCT-15 colon
MDA-MB-231 breast = tested on: MDA-MB-231 breast
CAKI-1 renal = tested on: CAKI-1 renal
OVCAR-3 ovarian = tested on: OVCAR-3 ovarian
NCI-H522 lung = tested on: NCI-H522 lung
HCT-116 colon = tested on: HCT-116 colon
SK-MEL-5 melanoma = tested on: SK-MEL-5 melanoma
HOP-62 NSCLC = tested on: HOP-62 NSCLC
TK-10 renal = tested on: TK-10 renal
SK-MEL-28 melanoma = tested on: SK-MEL-28 melanoma
MCF7 breast = tested on: MCF7 breast
SR leukemia = tested on: SR leukemia
HS 578T breast = tested on: HS 578T breast
BT-549 breast = tested on: BT-549 breast
HL-60(TB) leukemia = tested on: HL-60(TB) leukemia

`CCCC(CCC)C(=O)OCC1(CO)C/C(=C\c2ccc(C(F)(F)F)cc2)C(=O)O1` (stereo unspecified) was tested, and the GI50 (SW-620 colon) was 8.64 µM, the TGI (SW-620 colon) was 21.8 µM and the GI50 (OVCAR-4 ovarian) was 17.9 µM. It also gave a TGI (OVCAR-4 ovarian) of 34.4 µM, a GI50 (A498 renal) of 105 nM and a TGI (A498 renal) of 10.3 µM. It also gave a GI50 (OVCAR-8 ovarian) of 21 µM, a TGI (OVCAR-8 ovarian) of 41 µM and a GI50 (T-47D breast) of 14.7 µM. The TGI (T-47D breast) was 29.4 µM, the GI50 (SNB-19 CNS) was 16.8 µM and the TGI (SNB-19 CNS) was 30.6 µM. For the same compound, the GI50 (M14 melanoma) was 10.7 µM, the TGI (M14 melanoma) was 23.2 µM and the GI50 (NCI-H23 lung) was 15.8 µM. It also gave a TGI (NCI-H23 lung) of 32.1 µM, a GI50 (NCI-H460 lung) of 3.04 µM and a TGI (NCI-H460 lung) of 21.7 µM. It also gave a GI50 (SK-MEL-2 melanoma) of 18.6 µM, a TGI (SK-MEL-2 melanoma) of 36 µM and a GI50 (SF-295 CNS) of 2440 nM. The TGI (SF-295 CNS) was 17.7 µM, the GI50 (SF-539 CNS) was 11.8 µM and the TGI (SF-539 CNS) was 24.2 µM. The GI50 (IGROV1 ovarian) was 14.8 µM, the TGI (IGROV1 ovarian) was 33 µM and the GI50 (HCT-15 colon) was 12.8 µM. It also gave a TGI (HCT-15 colon) of 26.9 µM, a GI50 (MDA-MB-231 breast) of 7.66 µM and a TGI (MDA-MB-231 breast) of 22.9 µM. For the same compound, the GI50 (CAKI-1 renal) was 6.16 µM, the TGI (CAKI-1 renal) was 21.2 µM and the GI50 (OVCAR-3 ovarian) was 19.8 µM. It also gave a TGI (OVCAR-3 ovarian) of 36.1 µM, a GI50 (NCI-H522 lung) of 15.1 µM and a TGI (NCI-H522 lung) of 31.4 µM. The GI50 (HCT-116 colon) was 12.6 µM, the TGI (HCT-116 colon) was 25.6 µM and the GI50 (SK-MEL-5 melanoma) was 948 nM. For the same compound, the TGI (SK-MEL-5 melanoma) was 19.6 µM, the GI50 (HOP-62 NSCLC) was 2340 nM and the TGI (HOP-62 NSCLC) was 15.1 µM. It also gave a GI50 (TK-10 renal) of 5.62 µM, a TGI (TK-10 renal) of 20.3 µM and a GI50 (SK-MEL-28 melanoma) of 15.5 µM. The TGI (SK-MEL-28 melanoma) was 29.2 µM, the GI50 (MCF7 breast) was 17.4 µM and the TGI (MCF7 breast) was 33.9 µM. It also gave a GI50 (SR leukemia) of 14.9 µM, a TGI (SR leukemia) of 31.1 µM and a GI50 (HS 578T breast) of 12.1 µM. For the same compound, the TGI (HS 578T breast) was 30 µM, the GI50 (BT-549 breast) was 7.04 µM and the TGI (BT-549 breast) was 21 µM. It also gave a GI50 (HL-60(TB) leukemia) of 308 nM and a TGI (HL-60(TB) leukemia) of 8.13 µM.
